Laboratory results taken from patent US20030077653A1, “Method for the identification of active site protease inactivators” (The University of Georgia Research Foundation, Inc., priority 2000, published 2003).
Starred links: 1 amine or outer side, 2 acyl side, 3 side chain; linkers in the order of their positions; H or OH if unused. Residues, ends and D or L forms follow the SMILES beside them. *: point of attachment. AFC = O=c1cc(C(F)(F)F)c2ccc(N*)cc2o1; Morpholide = C1CN(*)CCO1; CO = O=C([*:1])[*:2]

System: purified Taenia solium cysteine protease
Test: Screen of AFC-linked synthetic substrates for cleavage (Step II)
Format: biochemical
Conditions: pH 4.9, 18 h, 37° C
Method: In this step, the most efficacious substrate for detection of the cysteine protease (high Kcat substrate) was determined in vitro along with those substrates which were not well cleaved (low kcat substrates). From this point forth, the following conditions refer to all assays: “assay buffer” refers to 0.4 M Citrate, pH 4.9 (the pH optima of the protease). Incubation time was 18 hours at 37° C. These conditions were determined by our preliminary data to be best for kinetic evaluation of the protease. […] The experiments were conducted in […] Borosilicate mini-culture tubes (Fisher Scientific), and a fluorometer (Turner) was employed for detection of AFC cleavage.
Approximately 1 ug (or a proteolytically detectable amount) of the purified target cysteine protease was incubated individually, with 1 μg of each of the available substrates in 500 μL of assay buffer. During this setup, the substrate was pre-incubated in the assay buffer for a short period of time (20 minutes) in order to reach an equilibrated status before the addition of the protease. Cleavage assessments were based upon the property of the protease to cleave synthetic peptide substrates linked at the C-terminus to 7-Amino-4-Trifluoromethyl Coumarin (AFC) as previously described. AFC linked tripeptides, dipeptides, and monopeptides, (with a variety of permutations at P3-P1) were available from Enzyme Systems Products (Livermore, CA), and were used as the source of the subset. Following incubation of enzyme preparations overnight (18 h, 37 ° C.) with peptide in assay buffer (Citrate, pH 4.9, supplemented with 0.01 M cysteine), free AFC concentrations were measured fluorometrically (excitation […]). The proteolytic cleavage released the AFC group, which was measurable as a free molecule by a standard fluorometer and converted into molar quantities, based upon a previously established standard curve. The simplicity of AFC detection by the fluorometer was a key factor which quickened and simplified the procedures.
In the assay, 1 ug of the purified Taenia cysteine protease was added to a saturating amount of Z-Phe-Arg-AFC (4×10^−5 M) in assay buffer. The experiment was conducted in triplicate and repeated at least 5 times until we were certain that variability in AFC cleavage was not statistically significant.
Vmax was calculated for the cleavage of substrates by the purified target protease and Vmax was calculated for substrates cleaved by the crude mix protease using conventional kinetic modeling calculations already described in the art.

## CC(C)C[C@H](NC(=O)N1CCOCC1)C(=O)N[C@@H](Cc1ccc(O)cc1)C(=O)Nc1ccc2c(C(F)(F)F)cc(=O)oc2c1 [Mu-LY-AFC, Mu-Leu-Tyr-AFC] ({Morpholide-CO}-Leu-Tyr-{AFC})
  cleavage as substrate (Vmax): noncleavable
